According to patent US20190216707A1, “COMPOSITION FOR PREVENTING HAIR LOSS AND PROMOTING HAIR GROWTH, COMPRISING PHYTOESTROGEN AS AN ACTIVE INGREDIENT” (STEMORE CO., LTD., priority 2016, published 2019):

Key:
[1] = system: immortalized dermal papilla cells (I-DPCs); assay: Proliferation of immortalized dermal papilla cells (Incucyte, phase object confluence); type: cell-based, Human; conditions: FIGS. 1A to 1D; for effect on the proliferation of I-DPCs (phase object confluence, %): 0.1 μM, 1 μM or 10 μM, cultured for 72 hours; for proliferation of I-DPCs: concentration of 1 μM to 10 μM
Procedure: Human-derived immortalized dermal papilla cells (I-DPCs; donated by Professor Sungyoung Kwan of the College of Medicine at Kyungpook National University; Shin, Seung-Hyun, et al. “Establishment and characterization of an immortalized human dermal papilla cell line.” BMB reports 44.8 (2011): 512-516.) were cultured in Follicle Dermal Papilla Cell Growth Medium supplemented with 10% fetal bovine serum […] and penicillin-streptomycin antibiotics for 3 days to prepare a dermal papilla cell line. On day 3 of culture, the cells cultured in the culture dish were transferred to a 96-well plate, and when the cells were attached to the bottom of each well, each well was treated with DO-10B, DO-14, DO-17, and DO-20 at a concentration of 10 μM and cultured for 48 hours.
In particular, the I-DP cell line was prepared by culturing under the same conditions as in Example <2-1>, and the cells were treated with DO-10B, DO-14, DO-17, and DO-20 at a concentration of 0.1 μM, 1 μM, or 10 μM in a cell culture medium, and then cultured for a total of 72 hours. At 0, 12, 24, 36, 48, 60, and 72 hours after the start of culture, the degree of saturation of cells attached to the bottom of each well (phase object confluence, %) was confirmed using the Incucyte System™.

C3H/HeNCrljOri mice = assay: Hair growth promotion on the hair-removed back of mice; type: in vivo; conditions: PBS containing 1 μM compound subcutaneously injected, 2 weeks; for hair cycle induction / hair growth, visually confirmed, compared to the non-administered group: FIG. 2; for hair weight compared with the minoxidil-administered control / hair weight relative to the non-administered control: FIG. 3
Text: In particular, to confirm the effects of DO-10B, DO-14, DO-17, and DO-20 on hair growth promotion when applied and subcutaneously administered, 6-week-old male C3H/HeNCrljOri mice were purchased and divided into a negative control, a positive control (minoxidil-treated group), and groups treated with DO-10B, DO-14, DO-17, and DO-20 to be used for experiments. To confirm a hair growth effect in the mice, when the mice became 6 weeks of age, first, the hair of the back of each mouse was removed using a clipper.
To confirm the effects of DO-10B, DO-14, DO-17, and DO-20 on hair growth promotion when subcutaneously injected, PBS containing 1 μM DO-10B, DO-14, DO-17, and DO-20 was subcutaneously injected into the hair-removed backs of mice at a daily cycle of 2 to 3 times, and the mice were raised for a total of 2 weeks. After the end of the rearing period, the hair of the back of each mouse was removed again using a mouse clipper, and the weight of the collected hair was measured to compare the hair weights of the non-administered group and the minoxidil-administered group.

Compound | effect on the proliferation of I-DPCs (phase object confluence, %) [1] | proliferation of I-DPCs [1] | hair cycle induction (C3H/HeNCrljOri mice) | hair growth, visually confirmed, compared to the non-administered group (C3H/HeNCrljOri mice) | hair weight compared with the minoxidil-administered control (C3H/HeNCrljOri mice) | hair weight relative to the non-administered control (C3H/HeNCrljOri mice)
violanone [DO-10B] | concentration-dependent manner | significantly promoted | induced to the anagen phase | significant hair growth | equal to or greater than that of the minoxidil-administered control | about two-fold or more
COc1cc2c(cc1O)[C@@H]1COc3cc(O)ccc3[C@@H]1O2 [DO-17, (6aR, 11aR)-3,8-dihydroxy-9-methoxypterocarpan] | concentration-dependent manner | significantly promoted | induced to the anagen phase | significant hair growth | equal to or greater than that of the minoxidil-administered control | about two-fold or more
(3R)-5′-methoxyvestiol [DO-14] | concentration-dependent manner | significantly promoted | induced to the anagen phase | significant hair growth | equal to or greater than that of the minoxidil-administered control | about two-fold or more
COc1ccc2c(c1)OC1c3ccc(O)cc3OCC21 (stereo not drawn) [DO-20, 3-hydroxy-9-methoxypterocarpan] | concentration-dependent manner | significantly promoted | induced to the anagen phase | significant hair growth | equal to or greater than that of the minoxidil-administered control | about two-fold or more
